Results reported in article PMC7961093, “Insights into the dual cleavage activity of the GH16 laminarinase enzyme class on β-1,3 and β-1,4 glycosidic bonds” (The Journal of Biological Chemistry, 2021).

Legend:
SCLam = target: T1, SCLam (soil metagenome, UniProt Z9RH19THY1, E147S); assay: isothermal titration calorimetry; format: binding; conditions: 20 mM sodium phosphate pH 6.5, 20 °C
T1 construct: monomer in asymmetric unit
T1 sequence (Z9RH19THY1 4-269 E147S): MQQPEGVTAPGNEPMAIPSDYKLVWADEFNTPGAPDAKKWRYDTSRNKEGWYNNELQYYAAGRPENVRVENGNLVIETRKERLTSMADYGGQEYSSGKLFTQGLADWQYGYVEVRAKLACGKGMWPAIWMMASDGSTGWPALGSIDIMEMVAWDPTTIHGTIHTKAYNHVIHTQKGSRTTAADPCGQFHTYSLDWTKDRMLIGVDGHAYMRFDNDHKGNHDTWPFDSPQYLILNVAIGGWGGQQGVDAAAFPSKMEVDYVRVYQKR
Excerpt: isothermal titration calorimetry on SCLam

TpLam = target: T2, TpLam (Thermotoga petrophila, UniProt A5IL44); assay: capillary zone electrophoresis of hydrolysis products; format: biochemical; conditions: 5 mM substrate, 10 μM enzyme, 70 °C, overnight
T2 construct: gene Tpet_0899; purified preparation
T2 sequence (A5IL44 18-641): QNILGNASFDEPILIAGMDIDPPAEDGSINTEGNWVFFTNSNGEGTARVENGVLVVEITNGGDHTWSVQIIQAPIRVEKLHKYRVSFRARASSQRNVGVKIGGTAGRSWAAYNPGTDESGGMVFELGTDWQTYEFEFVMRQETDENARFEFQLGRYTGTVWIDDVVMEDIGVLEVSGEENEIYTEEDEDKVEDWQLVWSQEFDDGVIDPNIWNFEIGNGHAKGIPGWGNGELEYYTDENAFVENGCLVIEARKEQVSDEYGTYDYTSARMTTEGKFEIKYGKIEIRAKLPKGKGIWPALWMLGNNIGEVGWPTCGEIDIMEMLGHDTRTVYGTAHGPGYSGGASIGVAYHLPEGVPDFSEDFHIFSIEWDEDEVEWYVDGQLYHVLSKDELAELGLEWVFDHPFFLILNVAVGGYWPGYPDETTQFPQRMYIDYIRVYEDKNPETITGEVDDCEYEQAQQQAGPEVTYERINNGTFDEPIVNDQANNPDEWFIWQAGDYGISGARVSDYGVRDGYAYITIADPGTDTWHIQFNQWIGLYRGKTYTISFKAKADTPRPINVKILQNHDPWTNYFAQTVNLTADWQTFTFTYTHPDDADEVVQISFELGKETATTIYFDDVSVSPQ

[1] = sequential binding model, site 1 (negative subsites)

| SMILES | Ka × 10^4 (M^-1) (SCLam; single-site model) | Ka × 10^4 (M^-1) (SCLam; [1]) | further results |
| --- | --- | --- | --- |
| OC[C@H]1O[C@@H](O[C@H]2[C@H](O)[C@@H](O)[C@H](O[C@H]3[C@H](O)[C@@H](O)[C@H](O[C@H]4[C@H](O)[C@@H](CO)OC(O)[C@@H]4O)O[C@@H]3CO)O[C@@H]2CO)[C@H](O)[C@@H](O)[C@@H]1O (stereo partly drawn) [BGB, 1,3-β-D-cellotriosyl-glucose] | 66.7 (±1.4) × 10^4 | – | – |
| OC[C@H]1O[C@@H](O[C@H]2[C@H](O)[C@@H](O)[C@H](O[C@@H]3[C@@H](O)[C@H](O[C@H]4[C@H](O)[C@@H](O)C(O)O[C@@H]4CO)O[C@H](CO)[C@H]3O)O[C@@H]2CO)[C@H](O)[C@@H](O)[C@@H]1O (stereo partly drawn) [BGC, 1,3-β-D-cellobiosyl-cellobiose] | 0.59 (±0.07) × 10^4 | – | – |
| OC[C@H]1O[C@@H](O[C@H]2[C@H](O)[C@@H](O)[C@H](O[C@H]3[C@H](O)[C@@H](O)[C@H](O[C@H]4[C@H](O)[C@@H](O)[C@H](O[C@H]5[C@H](O)[C@@H](O)C(O)O[C@@H]5CO)O[C@@H]4CO)O[C@@H]3CO)O[C@@H]2CO)[C@H](O)[C@@H](O)[C@@H]1O (some centres unmarked) [C5, cellopentaose] | – | – | capillary zone electrophoresis of hydrolysis products (TpLam): we also evaluated the activity of the TpLam from Thermotoga petrophila |

Now from value to compound, other results behind:

| Ka × 10^4 (M^-1) (SCLam; single-site model) | Ka × 10^4 (M^-1) (SCLam; [1]) | SMILES | further results |
| --- | --- | --- | --- |
| – | 9.7 (±0.56) × 10^4 | OC[C@H]1O[C@@H](O[C@H]2[C@H](O)[C@@H](O)[C@H](O[C@H]3[C@H](O)[C@@H](O)[C@H](O[C@H]4[C@H](O)[C@@H](O)[C@H](O[C@H]5[C@H](O)[C@@H](O)[C@H](O[C@H]6[C@H](O)[C@@H](O)C(O)O[C@@H]6CO)O[C@@H]5CO)O[C@@H]4CO)O[C@@H]3CO)O[C@@H]2CO)[C@H](O)[C@@H](O)[C@@H]1O (some centres unmarked) [C6, cellohexaose] | – |
| – | 17.8 (±2.2) × 10^4 | OC[C@H]1O[C@@H](O[C@@H]2[C@@H](O)[C@H](O[C@@H]3[C@@H](O)[C@H](O[C@@H]4[C@@H](O)[C@H](O[C@@H]5[C@@H](O)[C@H](O[C@H]6[C@H](O)[C@@H](CO)OC(O)[C@@H]6O)O[C@H](CO)[C@H]5O)O[C@H](CO)[C@H]4O)O[C@H](CO)[C@H]3O)O[C@H](CO)[C@H]2O)[C@H](O)[C@@H](O)[C@@H]1O (some centres unmarked) [L6, laminarihexaose] | – |
